In PMC10861593, “Kisspeptin-10 binding to Gpr54 in osteoclasts prevents bone loss by activating Dusp18-mediated dephosphorylation of Src” (Nature Communications, 2024):
Where a chain is given by its changes, count along the chain named. Names and notes keep the numbering of the source.

B1: His-DUSP18 (enzyme, human, UniProt Q8NEJ0 1-188, looked up)
chain: MTAPSCAFPVQFRQPSVSGLSQITKSLYISNGVAANNKLMLSSNQITMVINVSVEVVNTLYEDIQYMQVPVADSPNSRLCDFFDPIADHIHSVEMKQGRTLLHCAAGVSRSAALCLAYLMKYHAMSLLDAHTWTKSCRPIIRPNSGFWEQLIHYEFQLFGKNTVHMVSSPVGMIPDIYEKEVRLMIPL
notes: full-length WT human DUSP18, in pMCSG7; In the SPR it is called 'DUSP18 protein'; removal of the tag is not mentioned; also called DUSP18 protein; WT-DUSP18; source: E. coli, purified; not shown: His, N-terminal, kept
B2: DUSP18 (C104S): enzymatically dead DUSP18 (C104S) mutant (protein)
chain: B1 chain with C104S
modifications: left off: Flag, C-terminal, kept
notes: enzymatically dead DUSP18 (C104S) mutant
B3: mouse Gpr54^336–342 peptide (peptide, UniProt Q91V45 336-342, looked up)
peptide: RVCPCCR
notes: mouse Gpr54 (Kiss1 receptor), residues 336-342, said to correspond to the RxxPxxR motif; also called peptide of Gpr54^336–342 (RxxPxxR motif); source: synthetic peptide

How the values were obtained:
GPR54 / Src interaction = assay: Co-IP: interaction of GPR54 with Src in transfected 293T cells; format: cell-based, human; details: inhibitor 1 h (U73122 10 µM, Staurosporine 0.25 µM, LY3214996 10 µM, KN-93 10 µM, Saracatinib 10 µM), then 10 nM Kp-10 20 min
Protocol: (§1) Data represent means ± SEM. P values were determined by one-way ANOVA analysis (b, c, e, g, i, k). Representative results were obtained from at least three independent experiments. Source data are provided as a Source Data file.
(§2) Whole-cell proteins were extracted using 1x RIPA buffer (25 mM Tris, pH7.5, 150 mM NaCl, 0.5% Sodium deoxycholate, 1% Triton-X-100) supplemented with protease inhibitors (Complete Mini, Roche) and phosphatase inhibitors (phosphatase inhibitor cocktail set I and II, Calbiochem). Immunoprecipitation and immunoblotting with indicated antibodies were performed as described in Supplementary Table 1. Image Jsoftware (V1.52) was used for quantification analysis. Uncropped and unprocessed blots are presented in the Supplementary Information file.
Error bars are ± SEM. […] Source data are provided as a Source Data file.

Dusp18 expression = assay: qPCR of Dusp18 mRNA in RAW264.7 cells; format: cell-based, mouse; details: U73122 10 µM, Staurosporine 0.25 µM, LY3214996 20 µM, SB203580 10 µM for 1 h, then Kp-10 30 min
From the text: Anti-Flag IP of lysates derived from 293 T cells transfected with GPR54-flag and Src-HA constructs (d) and quantification results (e). Anti-Flag IP of lysates derived from 293 T cells transfected with GPR54-flag and DUSP18-HA constructs (f) and quantification results (g). Anti-Flag IP of lysates derived from 293 T cells transfected with Src-HA, and DUSP18-flag constructs (h) and quantification results (i). j, k IB analysis of lysates derived from WT BMMs and Gq/11 KO BMMs with or without Kp-10 treatment for 1 h (j) and quantification of results (k). l Working model of Kp-10 /Gpr54 mediated Src dephosphorylation. […] However, both active Src and DUSP18 were recruited by GPR54 through the PR motif in GPR54 CT along with the increase of Kp-10 dose (1, 10 nM). […] Data represent means ± SEM. P values were determined by one-way ANOVA analysis (b, c, e, g, i, k). Representative results were obtained from at least three independent experiments. Source data are provided as a Source Data file.
Total RNA was extracted from RAW264.7 cells using TRIzol® (TaKaRa) and then reverse transcribed into cDNA using the PrimeScript RT-PCR Kit (TaKaRa, RR014) according to the manufacturer’s instructions. The cDNA products were used for quantitative PCR analysis by SYBR Mix (TaKaRa, RR064). Sequences of the indicated primers are described in Supplementary Table 2.

SH3 domain of Src = assay: SH3 domain protein-binding array; details: TranSignal SH3 Domain Array, GST-GPR54 CT overnight at 4 °C
Protocol: SH3 domain protein-binding array was performed using TranSignal™ SH3 Domain Array kit (Cat. #MA3010). The kit was purchased from Panomics, and probed using GST-GPR54 CT. Purified different SH3 domain-containing proteins including the Src kinase family were spotted in duplicate on the membrane filter and tested for their binding to GST-GPR54 CT. Briefly, membrane filters were incubated with […] GST-GPR54 CT protein overnight at 4 °C. After washing the membrane, the GST antibody was incubated overnight at 4 °C. Protein binding was visualized by incubation with an HRP-conjugated antibody. Spots with stronger intensities indicated a higher binding affinity of GST-GPR54 CT with the SH3 domain-containing protein (s). SH3 domain proteins in the array were summarized in Supplementary Table 3.

[1] = tested on: DUSP18 / GPR54 interaction; assay: Co-IP: interaction of DUSP18 with GPR54 in transfected 293T cells; format: cell-based, human; details: 293T; inhibitor 1 h (U73122 10 µM, Staurosporine 0.25 µM, LY3214996 10 µM, KN-93 10 µM, Saracatinib 10 µM), then 10 nM Kp-10 20 min
Protocol: as §1, §2
Supplementary Fig. 6 a, b IB and quantification of protein levels analysis. […] Error bars are ± SEM. P-values were determined by two-tailed Student’s t-test (b, e) or by one-way ANOVA analysis (h, j). *P <0.05, **P <0.01, ***P <0.001, ****P <0.0001. Representative results were observed from at least three independent experiments. Source data are provided as a Source Data file.

Src / DUSP18 interaction = assay: Co-IP/IB: interaction of Src with DUSP18 in transfected 293T cells; format: cell-based
Protocol: Anti-Flag IP derived from 293 T cells transfected with HA-Src and either DUSP18-Flag or DUSP18 (C104S)-Flag constructs with or without Kp-10 treatment for 20 min were lysed and subjected to anti-FLAG IP (b). Phosphatase reaction products using His-DUSP18 and His-DUSP18 (C104S) proteins purified from E. coli and SRC proteins purified from Sf9 insect cells (c) and quantification of protein levels (d). Anti-Src IP derived from RAW264.7 cells treated with or without Kp-10 treatment for 20 min were lysed and subjected to anti-Src IP (e) and quantification of protein levels (f). g, h Src and Dusp18 co-localization was analyzed by IF staining in primary pre-osteoclasts treated with 10 nM Kp-10 treatment for 20 min. Representative images of endogenous Dusp18 and Src were shown by TIRF microscopy (g), and MOC was used to quantify the degree of colocalization in cells from multiple images taken randomly (h). Scale bar, 50 µm. i–m IB and quantification of protein levels analysis. Anti-Flag IP derived from 293 T cells transfected with HA-Src, GPR54-myc, and either DUSP18-Flag or DUSP18 (C104S)-Flag constructs after Kp-10 treatment for 20 min (i) and quantification of protein levels (j, k). […] Scale bars, 125 µm (n), and pits depth were quantified by confocal microscopy (o). […] P values were determined by one-way ANOVA analysis (d, f, j, k, m, o) or by two-tailed Student’s t-test (h). […]

[2] = target: T1, His-SRC protein, Src (G85-L536) (human, UniProt P12931 85-536); assay: SPR; Biacore T200, DUSP18 and Src; which of the two was immobilised is not told; 25 °C, 30 µl/minute, PBS with 0.05% Tween-20; kinetics analysis, 1:1 model; details: both partners purified
T1 construct: human Src, G85-L536, in pFastBac HT B; In the SPR it is called 'SRC protein'; removal of the tag is not mentioned; source: Sf9 (Bac-to-Bac baculovirus), purified; not shown: His6, N-terminal, kept

Src (Y416) = assay: in vitro phosphatase activity assay with Src; format: biochemical, human; details: purified proteins; 30 min at 30 °C; Western blot
Protocol: The C terminus of human GPR54 (H329- L398) and mouse Gpr54 (R331- L396) cDNAs were subcloned into a pGEX-4T2 vector. For purification of full-length WT human DUSP18 and DUSP18 (C104S) proteins, DUSP18 was cloned into pMCSG7 vector. For purification of Src (G85-L536) protein, cDNAs of human Src were subcloned into pFastBac HT B vector with an N-terminal 6xHis tag and expressed in Sf9 cells (Expression Systems) using the Bac-to-Bac Baculovirus Expression System (Invitrogen) for 48 h. For purification of the Src (G85-V247)-GPR54 (333–356 with C338S, C340S mutation) recombinant fusion protein, the C-terminus of GPR54 (333–356 with C338S and C340S mutation) was linked to the C terminus of Src SH3-SH2 domain (G85-V247), which was subcloned into the pMCSG7 vector.
For the total phosphatase activity assay, the Co-IP experiment was carried out after Kp-10 treatment of RAW264.7 cells for 20 min, followed by lysis and incubation with the Gpr54 antibody. The assay was performed according to the phosphatase assay kit (Sigma-Aldrich,17-313). For the DUSP18 phosphatase activity assay, His-DUSP18 and His-DUSP18 (C104S) were purified from E Coli, and His-Src was purified from Sf9 insect cells. His-DUSP18 and His-DUSP18 (C104S) were incubated with His-Src in 1x phosphatase buffer (20 mM HEPES, 20 mM MgCl2, 0.03% β-mercaptoethanol)[51] for 30 min at 30 °C with gentle shaking. […]

His-DUSP18 = target: B1; assay: SPR; Biacore T200, DUSP18 protein immobilised on CM5 by amine coupling (25 ug/mL, pH 7.4, PBS); 25 °C, 30 µl/minute, PBS with 0.05% Tween-20; kinetics analysis, 1:1 model; details: both partners purified

Molecule: Cn1nccc1Nc1nccc(-c2cc3c(s2)C(C)(C)N(CCN2CCOCC2)C3=O)n1 [LY3214996]
- effect on Kp-10 induced interaction of GPR54 with Src (GPR54 / Src interaction): not by the inhibitors
- expression of Dusp18 (mRNA) (Dusp18 expression): inhibited

Molecule: GPR54 CT: C terminus of human GPR54 (H329- L398)
- interaction with SH3 domains (SH3 domain of Src): interacted with the SH3 domain of Src most obviously

Molecule: CN[C@@H]1C[C@H]2O[C@@](C)([C@@H]1OC)n1c3ccccc3c3c4c(c5c6ccccc6n2c5c31)C(=O)NC4 [Staurosporine]
- effect on Kp-10 induced interaction of GPR54 with Src (GPR54 / Src interaction): not by the inhibitors
- expression of Dusp18 (mRNA) (Dusp18 expression): inhibited

Molecule: CN1CCN(CCOc2cc(OC3CCOCC3)c3c(Nc4c(Cl)ccc5c4OCO5)ncnc3c2)CC1 [Saracatinib]
- effect on Kp-10 induced interaction of GPR54 with DUSP18 [1]: obvioulsly dampened
- effect on Kp-10 induced interaction of Src with DUSP18 (Src / DUSP18 interaction; 293T, inhibitor 1 h (U73122 10 µM, Staurosporine 0.25 µM, LY3214996 10 µM, KN-93 10 µM, Saracatinib 10 µM), then 10 nM Kp-10 20 min): obvioulsly dampened
- effect on Kp-10 induced interaction of GPR54 with Src (GPR54 / Src interaction): obvioulsly dampened

Molecule: B1
- Kd [2]: 5.9 nM

Molecule: B2
- interaction with Src by Co-IP (Src / DUSP18 interaction; anti-Flag IP, 293T cells transfected with HA-Src): eliminated the interaction with Src
- dephosphorylation of Src (Y416) (Src (Y416)): had no activity

Molecule: B3
- Kd (His-DUSP18): 1800 nM
